Test results taken from ChEMBL document CHEMBL5252615, “Synthesis, biological activity and mechanism of action of novel allosecurinine derivatives as potential antitumor agents” (Bioorg Med Chem, 2023).

Key:
Assay type in all cases: functional, cell-based
[1] = test system: NB-4; assay: Antitumor activity against human NB4 cells assessed as reduction in cell viability incubated for 72 hrs; conditions: NB-4, 72 h
[2] = test system: HL-60; assay: Antitumor activity against human HL-60 cells assessed as reduction in cell viability incubated for 72 hrs; conditions: HL-60, 72 h
[3] = test system: THP-1; assay: Antitumor activity against human THP-1 cells assessed as reduction in cell viability incubated for 72 hrs; conditions: THP-1, 72 h
[4] = test system: KG-1; assay: Antitumor activity against human KG-1 cells assessed as reduction in cell viability incubated for 72 hrs; conditions: KG-1, 72 h
[5] = test system: U-937; assay: Antitumor activity against human U-937 cells assessed as reduction in cell viability incubated for 72 hrs; conditions: U-937, 72 h
[6] = test system: K562; assay: Antitumor activity against human K562 cells assessed as reduction in cell viability incubated for 72 hrs; conditions: K562, 72 h
[7] = test system: SU-DHL-2; assay: Antitumor activity against human SUDHL2 cells assessed as reduction in cell viability incubated for 72 hrs; conditions: SU-DHL-2, 72 h
[8] = test system: SK-OV-3; assay: Antitumor activity against human SK-OV-3 cells assessed as reduction in cell viability incubated for 72 hrs; conditions: SK-OV-3, 72 h
[9] = test system: SK-OV-3; assay: Antitumor activity against taxol-resistant human SK-OV-3 cells assessed as reduction in cell viability incubated for 72 hrs; conditions: SK-OV-3, 72 h

Compound	IC50 [1] [µM]	IC50 [2] [µM]	IC50 [3] [µM]	IC50 [4] [µM]	IC50 [5] [µM]	IC50 [6] [µM]	IC50 [7] [µM]	IC50 [8] [µM]	IC50 [9] [µM]
O=C1O[C@@]23C[C@@H](C=CC2=C1C(O)c1ccc(F)cc1F)N1CCCC[C@H]13 (some centres not stated)	5.8	7.66	15.8	2.21	6.99	10.3	15.3	14.7	14.9
O=C1O[C@@]23C[C@@H](C=CC2=C1C(O)c1ccc(-c2ccccc2)cc1)N1CCCC[C@H]13 (some centres not stated)	3.32	6.76	9.15	4.77	3.63	3.15	9.59	14.8	13.8
N#Cc1cccc(C(O)C2=C3C=C[C@@H]4C[C@@]3(OC2=O)[C@@H]2CCCCN42)c1 (some centres not stated)	7.7	9.98	16.1	1.95	1.79	6.02	20.1	6.68	7.61
O=C1O[C@@]23C[C@@H](C=CC2=C1C(O)c1nc2ccccc2s1)N1CCCC[C@H]13 (some centres not stated)			16.4		13.8		18	21	
N#Cc1ccc(C(O)C2=C3C=C[C@@H]4C[C@@]3(OC2=O)[C@@H]2CCCCN42)cc1 (some centres not stated)	3.84	7.16	15.6	2.57	2.2	3.11	19.3	4.18	4.54
Cc1ccc(C(O)C2=C3C=C[C@@H]4C[C@@]3(OC2=O)[C@@H]2CCCCN42)cc1 (some centres not stated)	13.2	11.5	12.7	5.58	11.1	8.35	19.4	7.58	8.42
O=C1O[C@@]23C[C@@H](C=CC2=C1C(O)c1ccccc1F)N1CCCC[C@H]13 (some centres not stated)	10.9	9.47	3.34	3.54	4.22	7.14	20.3	10.2	12.8
O=C1O[C@@]23C[C@@H](C=CC2=C1C(O)c1ccc(F)cc1)N1CCCC[C@H]13 (some centres not stated)	10.3	15.2	12.4	2.12	16.6	17.3	15.3	6.84	8.32
CC(C)(C)c1ccc(C(O)C2=C3C=C[C@@H]4C[C@@]3(OC2=O)[C@@H]2CCCCN42)cc1 (some centres not stated)	15.9	16	16.1	5.77	16.7	20.1	20.9	14.9	17
O=C1C=C2C=C[C@H]3C[C@@]2(O1)[C@@H]1CCCCN13	20.4	21.2	> 50	> 50	14.9	38.1	> 50	35.2	36.4
O=C1O[C@@]23C[C@@H](C=CC2=C1C(O)c1ccc(Br)cc1)N1CCCC[C@H]13 (some centres not stated)	6.18	9.92	15.5	2.27	10.8	2.58	15.2	14.2	12.5
O=C1O[C@@]23C[C@@H](C=CC2=C1C(O)c1ccc(C(F)(F)F)cc1)N1CCCC[C@H]13 (some centres not stated)	1.99	4.17	6.16	1.83	3.68	6.06	12.1	13.5	14.8
O=C1O[C@@]23CC(C=CC2=C1C(O)c1ccccc1[N+](=O)[O-])N1CCCC[C@H]13 (single isomer, unassigned)	3.3	9.2	10.7	4.18	8.05	3.7	16.1	10.2	9.91
O=C1O[C@@]23C[C@@H](C=CC2=C1C(O)c1ccccc1Cl)N1CCCC[C@H]13 (some centres not stated)	3.18	7.42	19.2	3.8	3.81	5.37	16.4	4.52	5.37
O=C1O[C@@]23C[C@@H](C=CC2=C1C(O)c1csc2ccccc12)N1CCCC[C@H]13 (some centres not stated)	4.45	20.4	15.6	6.14	29.6	2.37	27.9	22.2	20.7
O=C1O[C@@]23C[C@@H](C=CC2=C1C(O)c1ccccc1Br)N1CCCC[C@H]13 (some centres not stated)	4.67	3.52	15.5	4.11	4.38	1.68	20.7	7.76	5.59
O=C1O[C@@]23C[C@@H](C=CC2=C1C(O)c1cccc(F)c1)N1CCCC[C@H]13 (some centres not stated)	4.01	8.73	12	3.98	8.73	4.45	16	3.42	6.52
CC[C@@]1(O)C(=O)OCc2c1cc1n(c2=O)Cc2cc3ccccc3nc2-1 [CAMPTOTHECIN]	2.01	0.91	1.89	2.31	1.81	0.58	0.94		4.86
CS(=O)(=O)c1ccc(C(O)C2=C3C=C[C@@H]4C[C@@]3(OC2=O)[C@@H]2CCCCN42)cc1 (some centres not stated)	12.8	17.2	25.9	4.84	27.3	17.7	20.8	11.6	12.5
O=C1O[C@@]23C[C@@H](C=CC2=C1C(O)c1ccccc1)N1CCCC[C@H]13 (some centres not stated)	13.3	14.7	20.7	9.12	9.23	16.9	19	14.5	15.1
Cc1ccccc1C(O)C1=C2C=C[C@@H]3C[C@@]2(OC1=O)[C@@H]1CCCCN31 (some centres not stated)	5.01	13.4	26.9	10	8.04	12.7	27.2	20.1	19.3
O=C1O[C@@]23C[C@@H](C=CC2=C1C(O)c1ccc([N+](=O)[O-])cc1[N+](=O)[O-])N1CCCC[C@H]13 (some centres not stated)	12	10.8	18	3.08	6.36	10.8	18.3	7.86	8.89
